Source: publication PMC5847048 (Psychopharmacology, 2017)

Legend:
mice = test: Primary observation (Irwin) test; conditions: S 47445 alone, 3 to 100 mg/kg p.o.; mice
Excerpt: Male Rj: C57BL/6J mice (Elevage Janvier, 53940 Le Genest-Saint-Isle, France), 23–27 g body weight range, were stabilized for at least 5 days after delivery in macrolon cages in groups of 10 (housing period) (25 × 19 × 13 cm) and then of 4 (starting the day before the test and during the test) in macrolon cages (25 × 19 × 13 or 32 × 13 × 14 cm) on wood litter with free access to food and water.
Between one and three treated groups were compared with the same control at any one time. […] In order to keep the same conditions, all the mice receiving a single treatment also received another administration with vehicle.
Behavioral modifications, physiological and neurotoxicity symptoms, and rectal temperature were recorded according to a standardized observation grid derived from that of Irwin. The grid contains the following items: death*, convulsions*, tremor*, Straub tail*, altered activity, excitation, jumping*, abnormal gait* (rolling, tip-toe), motor incoordination*, altered muscle tone, loss of grasping, akinesia, catalepsy, loss of traction, writhing*, piloerection*, stereotypies* (sniffing, chewing, head movements), head-twitches*, scratching*, altered respiration*, aggression*, altered fear, altered reactivity to touch, ptosis, exophthalmia, loss of righting reflex, loss of corneal reflex, analgesia, defecation/diarrhea, salivation, lacrimation, and rectal temperature (hypothermia/hyperthermia).

normal adult mice = tested on: normal adult mice; parameters: method as in Bretin et al. [2017]; conditions: acute administration, ref Bretin et al. [2017]; cited from earlier work
[1] = tested on: middle-aged mice (14–15 months old); test: Contextual serial discrimination (CSD) task; format: in vivo, mouse; conditions: for Strength of contextual memory (SCM) score, first discrimination D1: Experiment 1 study A, middle-aged mice, vehicle − 21.66%; for SCM score (LSMeans ± SE LSMeans): Experiment 2, 9 days, D1
Protocol: Treatments were administered per os daily for nine consecutive days for studies involving the CSD and SA tasks. The 8th and the 9th oral administrations were given 60 min before acquisition and test phases in the CSD task, or before the training and the test sessions in the SA task.
The studies were carried out on mice according to the procedure described in full by Celerier et al. ([2004]) and Tronche et al. ([2010]) (Fig.1). Briefly, the mouse learns two consecutive spatial discriminations (D1 and D2) in a four hole-board apparatus (45 × 45 × 30 cm) enclosed with gray Plexiglas walls. The floor of the hole-board was interchangeable (white and rough versus black and smooth). On the floor, four holes opening on a food cup (3-cm diameter × 2.5-cm depth) were located 6 cm away from the sidewalls. Photocells located into the holes allowed an automatic recording of the number of head-dips in each hole.
Fig. 1 a Contextual serial discrimination: at the acquisition phase, mice performed two consecutive spatial discrimination sessions varying by the color and texture of the floor, i.e., D1, discrimination 1, and D2, discrimination 2. For each discrimination session, only one out of the four holes of the apparatus was baited (hashed circles). […] One hour prior to acquisition and test phases, mice received a per os administration of the compounds or vehicle solution in a chamber placed in a room (room C) different from the one in which the behavioral experiments were conducted (room A). Subsequently, mice were submitted to the test phase in which they were repositioned on the floor of the first discrimination without any food pellet in the apparatus. b Two types of responses were calculated: (i) correct responses corresponding to head-dips into the hole baited at the acquisition of the first discrimination (D1), on the same floor context; (ii) interference responses corresponding to head-dips into the hole baited at the other (second) discrimination (D2). Both parameters allow calculation of the SCM score
Mice were partially food-deprived for 1 week prior to experimentation and were maintained on a 12 ± 2% loss of their body weight throughout behavioral testing to increase motivation for food reward. During the food deprivation phase, mice were handled daily to familiarize them with the experimenter.
During the acquisition session, mice were first placed at the center of the board in a plastic tube for 15 s and then learned two successive spatial discriminations (D1 and D2) for 6 min each and were each separated by a 2-min interval. Between two sessions, each mouse was placed in its home cage in an animal housing room. For D1, ten 20-mg pellets were available only in one of the four holes in the board. For D2, ten 20-mg pellets were located in the opposite symmetrical hole. The environmental spatial cues remained at the same place for D1 and D2. Within each group, the floors used for the first and second discrimination (D1 and D2) were counterbalanced at the acquisition phase from one mouse to the other. A minimal amount of eight pellets should be eaten per mouse at either D1 or D2 during the acquisition phase.
During memory testing, D1 and D2 discriminations were performed in independent groups of mice, being replaced either on the floor of D1 or of D2. The food-deprived mice were replaced either on the floor of D1 or on the floor of D2. In each case, mice were allowed to explore the apparatus freely and performance was assessed by measuring the exploration for each hole for 6 min without any pellets in the apparatus. During the procedure, photocells allowed measurement of the number of head dips in each hole. Different parameters were further calculated: % of correct responses (head-dips into the hole previously baited on the same floor context), % of interfering responses (head-dips into the hole previously baited on the other floor context), and % of errors (head-dips into the two holes never previously baited).

Structure (SMILES): O=C1c2cc3nnn(CCc4cccc(F)c4)c(=O)c3cc2OCN1C1CC1 [S 47445]
- Observable effects in the Irwin test (mice): devoid of any observable effect
- Working-like memory in spontaneous alternation task (normal adult mice): dose-related improvement
- Total number of explorations and % exploration of the baited hole, acquisition phase ([1]; Experiment 1 (study A and B), compounds alone, p> 0.10 in all analyses): No significant between-groups difference
- Memory performance in the second discrimination (D2) ([1]; Experiment 1, S 47445 at all doses, donepezil at the active doses, versus middle-aged vehicle, data not shown): did not alter memory performance
- Total number of head-dips, test phase ([1]; Experiment 1, versus vehicles (p > 0.10 in all comparisons), data not shown): no significant effect
- Strength of contextual memory (SCM) score, first discrimination D1 ([1]; S 47445 0.1 mg/kg p.o. daily 9 days): 6.56%
- Strength of contextual memory (SCM) score, first discrimination D1 ([1]; S 47445 0.3 mg/kg p.o. daily 9 days): 10.57%
- SCM score (LSMeans ± SE LSMeans) ([1]; S 47445 0.1 mg/kg p.o. alone): 5.1515 ± 7.7919%
- SCM score (LSMeans ± SE LSMeans) ([1]; S 47445 0.3 mg/kg p.o. alone): 11.7033 ± 7.7919%
- Post hoc analysis of S 47445 effect on SCM score for all donepezil levels (Dunnett, versus vehicle group) ([1]; S 47445 0.03 mg/kg, all levels of donepezil pooled): + (+p ≤ 0.050)
- SCM score of the second discrimination (D2), dose effect at pooled levels of the other drug ([1]; Supplemental data 2, S 47445 0.03–0.3 mg/kg p.o. (p=0.951), Donepezil 0.03 and 0.1 mg/kg (p=0.074)): no significant effect
